Laboratory results reported in patent US20180092908A1, “SMALL MOLECULE OXIDIZERS OF PDI AND THEIR USE” (THE TRUSTEES OF COLUMBIA UNIVERSITY IN THE CITY OF NEW YORK, priority 2015, published 2018).
Converted amounts (≈) assume the structure as drawn. Read-outs that look alike come from different tables or passages of the source.

What was measured:
[1] = target: T1, human catalytic PDI A1 a domain (PDIa) (Homo sapiens, UniProt P07237); test: Isothermal titration calorimetry (ITC) binding to PDIa; conditions: PDIa
T1 construct: made in house; host or cells: Escherichia coli BL21-Gold (DE3)

Solubility = conditions: for solubility: Table 4
[2] = Mouse microsome stability assay; type: in vitro ADME; conditions: compound 0.5 μM
Description: At 0, 5, 15, 30 and 45 minute intervals, an aliquot was taken and quenched with acetonitrile (ACN) containing internal standard. No-cofactor controls at 45 minutes were prepared. Following completion of the experimentation, the samples were analyzed by LC-MS/MS. […] C=initial×exp (−k×t). Intrinsic clearance (CLint) was calculated as liver clearance from the half-life using the following equation: CLint=k×(ml incubation/0.5 mg protein)×(52.5 mg protein/g liver). Results were reported as peak area ratios of analyte to internal standard. The intrinsic clearance (CLint) was determined from the first order elimination constant by non-linear regression. The microsome stability assay, plasma stability assay, and plasma protein binding assay were each performed by Alliance Pharma, Inc. (Malvern, Pa.).

[3] = target: T1, human catalytic PDI A1 a domain (PDIa); test: Isothermal titration calorimetry (ITC) binding to PDIa; conditions: PDIa; remark: listed apart in the source
Description: All ITC experiments were carried out at 25° C. on MicoCal Auto-ITC200 system (GE Healthcare). Reduced PDIa was dialyzed into ITC buffer (20 mM sodium phosphate buffer pH 7.8) and loaded into a sample cell at 40 μM concentration. The compound solution was loaded into a syringe at 400 μM in the same ITC buffer with a final DMSO concentration at 0.4% (v/v). ITC titration experiments were carried out at 25° C. with 19 injections, 2 μl per injection, and 180 seconds between each injection. The reference cell power was set to 5 μcal/sec. A control experiment was performed for each compound, where each compound was titrated into buffer to account for heat released due to dilution. This background was subtracted from test data before a final dissociation constant was obtained. Data were analyzed using a one-site binding model in Origin 7.1 software. […] Gibbs free energy, ΔG, was calculated from equation ΔG=ΔH−TΔS. All other parameters, Ka, n, ΔH, ΔS, were determined directly from the titration data.
For ITC experiments with 16F16 pre-treatment, 40 μM PDIa (after dialysis into ITC buffer) was treated with 200 μM 16F16 for 12-15 hours at 4° C. Next day the whole solution was loaded into the sample cell. LOC14 at 400 μM in ITC buffer was loaded into syringe and titrated into PDIa+16F16 loaded cell. For control experiments, ITC buffer with 200 μM 16F16 was used in the cell, while 400 μM LOC14 in ITC buffer was used in the syringe.
The binding mode of LOC14 to PDIa was next investigated using isothermal titration calorimetry (ITC). ITC measures the heat released or absorbed during a biomolecular interaction. It is a direct analytical method for determining the binding and thermodynamic parameters, such as reaction stoichiometry (n), binding constants (Ka and Kd), enthalpy (ΔH), entropy (ΔS), and free energy (ΔG) of an interaction.

physchem = conditions: DMSO, organic solvent or mixture
[4] = target: T2, recombinant catalytic a domain of human PDI A1 (PDIa) (Homo sapiens, UniProt P07237); test: Insulin aggregation assay (PDIa reductase activity); type: biochemical; conditions: for Insulin Assay (either active or inactive): Table 5
T2 construct: made in house; host or cells: Escherichia coli BL21-Gold (DE3)
Text: In this insulin aggregation assay (Xu et al., 2012; Jasuja et al., 2012; Khan et al., 2011; Smith et al., 2004), PDIa reduced the two disulfide bonds between the α- and β-chains of insulin, causing the β-chain to aggregate and precipitate, resulting in an increase in absorbance at 650 nm.
To investigate the mode of binding further and to determine whether the binding was reversible or irreversible, the recovery of enzymatic activity of PDIa after dilution of pre-formed concentrated PDIa-LOC14 complexes was analyzed. LOC14 (750 μM) was incubated with a concentrated solution of PDIa (500 μM). The mixture was then diluted 100-fold and PDI's enzymatic activity was measured in the insulin reduction assay. As a control, the same procedure was also performed on the sample containing an irreversible inhibitor, 16F16 (16F16 at 750 μM and PDIa at 500 μM). […] This illustrated that unlike 16F16, LOC14 binding to PDIa is reversible.

PC12 mHTT^Q103 cells [5] = test: Rescue of PC12 cells from mHTT^Q103 induced cell death (Alamar blue viability); type: cell-based; conditions: Rattus norvegicus
Text: PC12 mHTT^Q103 cells were a gift from Erik S. Schweitzer (UCLA School of Medicine, Los Angeles, Calif.). These cells are stably transfected with the first exon of human HTT gene containing the pathogenic 103 CAG/CAA repeat expansion, under the control of the ecdysteroid promoter (Aiken et al., 2004). The plasmid also contains a Bombyx mori ecdysone receptor gene fused at N-terminal with VP16 transactivation domain (Suhr et al., 1998; Vilaboa et al., 2011). Addition of the ecdysone analog, tebufenozide, to the cell culture medium is used to initiate the transcription of mutant HTT (Aiken et al., 2004).
PC12 mHTT^Q103 cells were cultured in DMEM containing 4.5 g/I glucose, 25 mM HEPES, sodium pyruvate, and no L-glutamine (Mediatech, cat. no. 15-018-CV), supplemented with 10% (v/v) Cosmic Calf serum, 2 mM L-glutamine, 100 units/mL of penicillin-streptomycin, and 0.5 mg/ml active geneticin. Cells were grown at 37° C., 9.5% CO2, and the medium was replaced with fresh medium every 2-3 days. To induce mHTT^Q103 expression for experiments, tebufenozide, a gift from Lynne Moore and Fred H. Gage (The Salk Institute for Biological Studies, La Jolla, Calif.), was added to the medium at 200 nM final concentration from 1 mM stock in 85% ethanol.
LOC mother plates with compounds at 4 mg/ml were thawed and spun down (1000 rpm, 20° C., 1 min) prior to use. Biomek FX (Beckman Coulter) robotic liquid dispenser was used to handle all liquid transferring and mixing. […] Two fold serial dilution was performed across five daughter plates by transferring 50 μl of compounds (at […]) from the D1 plate into 50 μl of PC12 medium in daughter plate D2, mixing, and then repeating the process for the remaining three plates. Daughter plate D1 with compounds at […], daughter plate D3 with compounds at 20 μl/ml and daughter plate D5 with compounds at 5 μl/ml were then used for the screen. Assay plates were set up by seeding tebufenozide-induced PC12 mHTT^Q103 cells into 384-well black, clear-bottom plates (Corning Inc. cat. no. 3712) at a density of 7,500 cells per well in 57 μl PC12 medium without geneticin. Three microliters of compound from the daughter plates (D1, D3, and D5) were added to the assay plates for a final compound concentration of 4 μl/ml, 1 μl/ml, and 0.25 μl/ml. Four wells containing uninduced PC12 mHTT^Q103 cells and four wells containing medium only, were also included on each plate as controls. The assay plates were incubated at 37° C., 9.5% CO2 for 48 hours. Twenty microliters of 40% Alamar blue (Life Technologies cat. no. DAL1100) solution in PC12 medium was added to each well (1:10 final dilution) and the plates were incubated for an additional 12-24 hours at 37° C., 9.5% CO2. Alamar blue fluorescence was read on a fluorescence plate reader (PerkinElmer Victor3) with 530 nm excitation filter and 590 nm emission filter. Each compound concentration was tested in triplicate.
The follow-up testing of primary screen hits was performed in a similar way. Fresh powder stocks of primary hits were re-ordered from vendors, dissolved in DMSO and tested in a two-fold serial dilution across 10 wells in both tebufenozide-induced and uninduced PC12 mHTT^Q103 cells. Dose-response curves were plotted as mean±SD and fit to either four-parameter sigmoidal (for uninduced cells) or bell-shaped (induced) function using Prism (GraphPad Software).
A cascade of two assays was used, involving both a phenotypic high-throughput screening (HTS) assay and an in vitro PDI reductase assay, to identify neuroprotective PDI-inhibiting compounds. […] Alamar blue was used as a fluorescent readout for viability after 48 hours of compound treatment and mHTT^Q103 induction. […] All the candidate hit compounds were re-tested in a two-fold dilution series.

[6] = target: T2, recombinant catalytic a domain of human PDI A1 (PDIa); test: Insulin aggregation assay (PDIa reductase activity); type: biochemical; conditions: compound 750 μM
PC12 mHTT^Q103 cells [7] = conditions: Hoffstrom et al., 2010; read-out: EC50, rescue of PC12 mHTT^Q103 cells (previously identified inhibitor); cited from earlier work
[8] = Mouse plasma stability assay; type: in vitro ADME; conditions: compound 1.0 μM
Description: Test compound (1 μM) was incubated at 37° C. for up to 120 minutes in mouse plasma. At 0, 15, 30, 60, and 120 minute intervals an 100 μL aliquot was taken and quenched with 200 μL acetonitrile (ACN) containing internal standard. Following completion of the experimentation, the samples were analyzed by LC-MS/MS. The half-life (t1/2) was calculated using the following equation: t1/2=0.693/k, where, k is the elimination rate constant of test compounds obtained by fitting the data to the equation: C=initial×exp (−k×t). Results were reported as peak area ratios of analyte to internal standard.
The microsome stability assay, plasma stability assay, and plasma protein binding assay were each performed by Alliance Pharma, Inc. (Malvern, Pa.).

[9] = first site, Table 4, read-out: ITC KD1 (two binding site)
[10] = PC-12, Table 5, read-out: Cell Viability Assay EC50
[11] = first site, Table 5, read-out: ITC Assay KD1 (2 binding sites)

T2 sequence (P07237 with tags, fused parts or gaps): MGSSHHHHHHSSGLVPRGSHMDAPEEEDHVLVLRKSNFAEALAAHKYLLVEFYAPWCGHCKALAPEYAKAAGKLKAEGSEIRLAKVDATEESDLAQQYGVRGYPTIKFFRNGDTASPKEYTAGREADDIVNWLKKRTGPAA
T1 sequence (P07237 with tags, fused parts or gaps): as above

## O=c1c2ccccc2[se]n1-c1ccccc1 [Ebselen, reference compound]
[1]; [9]
  Kd: 5.2 nM
[1]; second site, Table 4, read-out: ITC KD2 (two binding site)
  Kd: 111 nM
Solubility
  solubility: Poor

## CCOc1ccc2ccc(=O)oc2c1 [7-Ethoxycoumarin, reference compound]
[2]; mouse liver microsomes
  Elimination rate constant (k): 0.2341
  Intrinsic Clearance (CLint), mL/min/g liver: 24.58 mL/min/g liver
[2]; mouse, liver microsomes, pH 7.4, mouse liver microsomes, read-out: Half-life (t1/2)
  half-life at 0.5 μM: 3 min

## CC(C)(C)OC(=O)NC1CCN(Cn2sc3ccccc3c2=O)CC1 [LC-8]
[3]; Table 4, read-out: ITC KD
  Kd: 94.3 nM
[3]; Table 5, read-out: ITC Assay KD
  Kd: 94.3 nM
Solubility; Table 5
  Solubility in DMSO: 50 mM in DMSO
physchem
  solubility: 50 mM (≈ 18.2 mg/mL)
[4]
  Insulin Assay (either active or inactive): Active
PC12 mHTT^Q103 cells [5]; [10]
  EC50: 384 nM

## COC(=O)C1(C)c2[nH]c3ccccc3c2CCN1C(=O)CCl (centres unmarked) [16F16, reference compound]
[6]
  inhibition of PDI's reduction of insulin without dilution: able to inhibit
PC12 mHTT^Q103 cells [7]
  EC50: 1000 nM
[4]; compound 750 μM + PDIa 500 μM, diluted 100-fold
  PDI's enzymatic activity after dilution of pre-formed complex: still inhibited

## O=c1c2ccccc2sn1CN1CCN(Cn2sc3ccccc3c2=O)CC1 [LC-9, 2,2′-(piperazine-1,4-diylbis(methylene))bis(benzo[d]isothiazol-3(2H)-one)]
Solubility
  solubility: poor solubility
Solubility; Table 5
  Solubility (words, printed in ITC Assay column): poor solubility
physchem
  solubility: < 6.75 mM
[4]
  Insulin Assay (either active or inactive): Active
PC12 mHTT^Q103 cells [5]; [10]
  EC50: 173 nM

## O=c1c2ccccc2sn1-c1ccccc1 [LC-24]
[1]; [11]
  Kd: 8.1 nM
physchem
  solubility: 50 mM (≈ 11.4 mg/mL)
[4]
  Insulin Assay (either active or inactive): not active
PC12 mHTT^Q103 cells [5]; PC-12, read-out: Cell Viability Assay EC50
  EC50: 1130 nM

## O=c1c2ccccc2sn1Cc1ccccc1 [LC-5, 2-benzylbenzo[d]isothiazol-3(2H)-one]
[1]; [9]
  Kd: 42.7 nM
[1]; [11]
  Kd: 42.7 nM
[1]; read-out: ITC Assay KD2 (2 binding sites), second site, Table 5
  Kd: 2270 nM
Solubility; Table 5
  Solubility in DMSO: 100 mM in DMSO
[4]
  Insulin Assay (either active or inactive): Active

## CCOC(=O)[C@H](CCc1ccccc1)N[C@@H](C)C(=O)N1CCC[C@H]1C(=O)O [Enalapril, reference compound]
[8]
  % Remaining after 2-hour incubation: 4.3%
  Elimination rate constant (k): 0.0201
[8]; read-out: Half-life (t1/2) (converted)
  half-life at 1 μM: 36 min
